From patent publication US20250009852A1, “DEPLETING EGFR AND HER2 OVERCOMES RESISTANCE TO EGFR INHIBITORS IN COLORECTAL CANCER” (Health Research, Inc., priority 2021, published 2025)

B1: PEPD^G278D: recombinant and enzymatically inactive mutant of human peptidase D (PEPD), with replacement of glycine 278 by aspartic acid (protein)
chain: AAATGPSFWLGNETLKVPLALFALNRQRLCERLRKNPAVQAGSIVVLQGGEETQRYCTDTGVLFLQESFFHWAFGVTEPGCYGVIDVDTGKSTLFVPRLPASHATWMGKIHSKEHFKEKYAVDDVQYVDEIASVLTSQKPSVLLTLRGVNTDSGSVCREASFDGISKFEVNNTILHPEIVESRVFKTDMELEVLRYTNKISSEAHREVMKAVKVGMKEYGLESLFEHYCYSRGGMRHSSYTCICGSGENSAVLHYGHAGAPNDRTIQNGDMCLFDMDGEYYSVASDITCSFPRNGKFTADQKAVYEAVLLSSRAVMGAMKPGDWWPDIDRLADRIHLEELAHMGILSGSVDAMVQAHLGAVFMPHGLGHFLGIDVHDVGGYPEGVERIDEPGLRSLRTARHLQPGMVLTVEPGIYFIDHLLDEALADPARASFLNREVLQRFRGFGGVRIEEDVVVIDSGIELLTCVPRTVEEIEACMAGCDKAFTPFSGPK
modifications: left off: small tags and cut ends

Key:
[1] = Monitoring of mice for signs of adverse effects; type: in vivo; conditions: mice bearing HCT116 or HT29 tumors; aderbasib alone or the combination regimen
Method: SCID mice (C.B.17 SCID) were bred by the Laboratory Animal Shared Resource at Roswell Park Comprehensive Cancer Center. Male mice at 7-8 weeks of age were used. All mouse experiments were approved by the Institutional Animal Care and Use Committee at Roswell Park Comprehensive Cancer Center under protocol 1022M. We established subcutaneous tumors by inoculating 1×10^6 HCT116 cells, 4×10^6 HT29 cells, or 2×10^6 SW48 cells to the flank of each mouse in 100 μl of serum free medium. Colon patient-derived xenograft (PDX) 14650 was established from a liver metastatic lesion in a patient treated at Roswell Park Comprehensive Cancer Center. Tumor fragments (˜20 mm^3) from donor mice were implanted into the flank of each mouse subcutaneously using a trocar. […] Subcutaneous tumor volume was measured using length ×width^2÷2. Tumor volume was measured three times each week. Orthotopic tumor growth was monitored by bioluminescence weekly. Mice were given D-luciferin (150 mg/kg) by ip and anesthetized with isoflurane, and tumor burden was measured by bioluminescence using the IVIS Spectrum In Vivo Imaging System (PerkinElmer). Drug treatment was started when significant tumor growth was detected. […] The mice were closely monitored for sign of adverse effects and weighed three times each week. […]

[2] = tested on: EGFR^R451C, EGFR^K467T, EGFR^S492R and WT EGFR; test: Western blotting of SW620 cells transfected with EGFR or its mutant; type: cell-based, human; conditions: 25 nM for 48 h, extent very similar to WT EGFR
Source text: pGL4.51[luc2/CMV/Neo] was purchased from Promega (Cat #E132A). pCMV6-A-EGFR-puro, reported previously, was used as a template to generate single point mutations of EGFR, including R451C, K467T, and S492R, using the QuikChange Lightning Site-Directed Mutagenesis Kit (Agilent Technologies). The primers were purchased from IDT, including primers for generating EGFR^R451C (forward: 5′-[…]-3 (SEQ ID NO:2); reverse: 5′-[…]-3′ (SEQ ID NO:3), EGFR^K467T(forward: 5-[…]-3′ (SEQ ID NO:4); reverse: 5′-[…]-3′ (SEQ ID NO:5), and EGFR^S492R (forward: 5′-[…]-3′ (SEQ ID NO:6); reverse: 5′-[…]-3′ (SEQ ID NO:7)). All constructs were confirmed by DNA sequence analysis.
Transfection of pCMV6-A-puro-EGFR, pCMV6-A-puro-EGFR^R451C, pCMV6-A-puro-EGFR^K467T or pCMV6-A-puro-EGFR^RS492R was performed using Lipofectamine 3000. SW620 cells were grown in 6-well plates (3×10^5 cells/well with 2 ml medium) for 24 h and then transfected with a plasmid at 1 μg DNA per well for 48 h. […]
Protein concentrations in all samples were measured using the BCA Assay Kit. […] Proteins were transferred to polyvinylidene fluoride membrane, probed with specific antibodies, and detected using either Luminata Classico (Millipore) or Luminata Cresendo (Millipore). […] The beads were washed three times with IP buffer, suspended in 2× SDS loading buffer, boiled for 5 min, and analyzed by Western blotting.

| Molecule | signs of toxicity [1] | downregulation (expression and phosphorylation) of each EGFR mutant R451C, K467T, S492R [2] |
| --- | --- | --- |
| COC(=O)N1CC2(CC2)C[C@H](C(=O)NO)[C@H]1C(=O)N1CC=C(c2ccccc2)CC1 [aderbasib] | did not show signs of toxicity |  |
| B1 |  | strongly downregulated |
